Measurements published in patent US10851372B2, “Exosome packaging of nucleic acids” (University of Ottawa, priority 2015, dated 2020).

Experiments:
[1] = Effect of drugs on exosome number and miR-451 enrichment in exosomes; assay type: cell-based; conditions: treatment of exosome-producing cells
Description: A variety of cellular factors which may affect nucleic acid construct packaging in exosomes using methods as described herein were studied. Specifically, effects of over-expression of mutant Ras, mutant Myc, wild-type Ago2, and siRNA depletion of Translin were studied. […] The effect of several drugs was also tested, such as mTOR inhibitors and lysosomal/autophagy inhibitors which are clinically used. […] Lysosomal/autophagy inhibitors tested include Bafilomycin A1, concanamycin, and NAADP-AM.

[2] = tested on: MEF; experiment: Exosomal enrichment of endogenous miR-451, RT-qPCR in exosomes vs exosome-producing cells; assay type: cell-based, mouse
Description: (§1) Firstly, enrichment of endogenously expressed miR-451 in exosomes was compared to other endogenously expressed microRNAs (miR-16, let-7a).
(§2) Exosomes were enriched by differential centrifugation as previously described (Thery, 2006, Curr Protoc Cell Biol, Chapter 3, Unit 3 22). Briefly, MEF or MDA-MB-231 cells were cultured in media containing FBS depleted of exosomes by centrifugation at 100 000 g for 16 h (Thery, 2006, Curr Protoc Cell Biol, Chapter 3, Unit 3 22). To purify exosomes supernatant from cell cultures was centrifuged at 400 g (7 min), 2000 g (10 min) and 10 000 g (30 min, SW32 rotor). At each step the supernatant was recovered. After centrifugation at 100 000 g (1 h 10 min, SW32 rotor) the supernatant was removed and the pellet was resuspended. The pellet was washed in PBS by a final centrifugation at 100 000 g (20 min, TLA100.3 rotor). The exosome-enriched pellet was re-suspended in PBS for further analyses.
RT-qPCR was performed with the MiScript II Reverse Transcriptase system (Qiagen) and GoTaq® qPCR Master Mix (Promega A6002) using primers allowing amplification of the DNA produced in the reverse transcriptase step. […]
RT-qPCR was performed with (Promega A6002) or Quantitect qPCR master mix (Qiagen) using primers allowing amplification of the DNA produced in the reverse transcriptase step using the following primers mir-451: […] […]

[3] = tested on: BV2; experiment: as above; assay type: cell-based, mouse; conditions: exosome-depleted or serum-free media
Description: as §1
(§3) RT-qPCR was performed with the MiScript II Reverse Transcriptase system (Qiagen) and GoTaq® qPCR Master Mix (Promega A6002) using primers allowing amplification of the DNA produced in the reverse transcriptase step. Results were normalized to the ubiquitous miRNA let-7a and miR-16.
(§4) RT-qPCR was performed with (Promega A6002) or Quantitect qPCR master mix (Qiagen) using primers allowing amplification of the DNA produced in the reverse transcriptase step using the following primers mir-451: […] (SEQ ID NO: 14), let-7a: […] (SEQ ID NO: 15), mir-16: […] (SEQ ID NO: 16).

[4] = tested on: C8D1A; experiment: as above; assay type: cell-based, mouse; conditions: exosome-depleted or serum-free media
Description: as §1, §3, §4

[5] = tested on: C8D30; experiment: as above; assay type: cell-based, mouse; conditions: exosome-depleted or serum-free media
Description: as §1, §3, §4

[6] = tested on: C8S; experiment: as above; assay type: cell-based, mouse; conditions: exosome-depleted or serum-free media
Description: as §1, §3, §4

[7] = tested on: JAWSII; experiment: as above; assay type: cell-based, mouse; conditions: exosome-depleted or serum-free media
Description: as §1, §3, §4

[8] = tested on: MN1; experiment: as above; assay type: cell-based, mouse; conditions: exosome-depleted or serum-free media
Description: as §1, §3, §4

[9] = tested on: Macrophage; experiment: as above; assay type: cell-based, mouse; conditions: exosome-depleted or serum-free media
Description: as §1, §3, §4

[10] = tested on: N2A; experiment: as above; assay type: cell-based, mouse; conditions: exosome-depleted or serum-free media
Description: as §1, §3, §4

[11] = tested on: NSC34; experiment: as above; assay type: cell-based, mouse; conditions: exosome-depleted or serum-free media
Description: as §1, §3, §4

[12] = tested on: MDA-MB-231; experiment: Exosomal enrichment of endogenous miRNAs, RT-qPCR in exosomes vs exosome-producing cells; assay type: cell-based, human
Text: Exosomes from breast epithelial cell line (MDA-MB-231) or mouse embryonic fibroblasts (MEF) were purified and multiple techniques were used to confirm the identity and purity of exosome preparations (see FIG. 1A-D). Dynamic light scattering and Nanosight particle tracking was used to ensure that exosomes purified were highly pure populations of particles with diameter of 100 nm, as expected for exosomes. […] RNA was isolated from these exosomes and the cells that produced them, and RT-qPCR was used to characterize the relative abundance of miRNAs.
as §1, §2, §3

[13] = tested on: MSC Line; experiment: Exosomal enrichment of endogenous miR-451, RT-qPCR in exosomes vs exosome-producing cells; assay type: cell-based; conditions: exosome-depleted or serum-free media
Description: as §1, §3, §4

[14] = tested on: ESC; experiment: as above; assay type: cell-based, human
Description: as §1, §3, §4

[15] = tested on: Primary MSC; experiment: as above; assay type: cell-based, human; conditions: exosome-depleted or serum-free media
Description: as §1, §3, §4

[16] = tested on: exosomes from multiple cell types and sources; conditions: plasma, serum, mast cells, glioblastoma, B cells, cardiac progenitor cells, MSC; cited from earlier work
[17] = tested on: mouse embryonic fibroblast cells; experiment: Exosomal enrichment of synthetic RNA constructs mimicking pre-miR-451 processing stages (RT-qPCR); assay type: cell-based; conditions: synthetic RNA transfected, FIG. 9(E)
Description: Synthetic RNA constructs mimicking WT pre-miR-451 at various processing stages were tested for exosomal enrichment. Constructs were transfected into cells, and exosome enrichment was measured by RT-qPCR after exosome purification by differential centrifugation. miR-451 derived mature siRNA was normalized to levels of let-7a and miR-16 in exosomes vs. cells. Constructs tested include WT pre-mIR-451 construct following Drosha processing (A), an Ago2-cleaved version of the construct (B), and a mature 22 nt miR-451 (post exonuclease activity, having a 5′ targeting portion including a portion of the loop region) (C). For comparison, a standard 21 nt dsRNA siRNA with 3′ overhangs (D) was also tested. Exosomal enrichment results are shown in (E);
Constructs were accordingly designed which mimic WT pre-miR-451 at various processing stages, and tested for exosomal enrichment. Constructs tested are graphically depicted in FIG. 9. […]
RNAs corresponding to 42 nt pre-miR-451 with an inserted GFP siRNA, or the same construct up to the Ago2 cleavage site, or the fully mature form of miR-451 produced GFP siRNA (single-stranded 22 nt RNA), or double-stranded GFP siRNA with 2 nt 3′ overhangs were synthesized by IDT. […] Two days later exosomes were purified and levels of mature GFP siRNA in exosomes was quantified by RT-qPCR.

[18] = tested on: Ago2 knockout mouse embryonic fibroblasts; experiment: Effect of Ago2 on exosomal enrichment of siRNA from pre-miR-451 structural mimic (qRT-PCR); assay type: cell-based; conditions: compared to wild-type cells or Ago2 knockout cells rescued with wild-type or catalytically dead Ago2, FIG. 10
Description: (§5) In these experiments, plasmids including siRNA sequences targeting GFP or TctR integrated in a pre-miR-451 structural mimic were transfected into cells, and the levels of GFP or TetR siRNA in exosomes vs cells (vs. let-7a and miR-16 in exosomes/cells) was measured by qRT-PCR two to three days later. Enrichment of miR-451 derived sequences in exosomes was normalized to 1 for wild-type exosomes.
Testing of the effect of Ago2 on enrichment of siRNA-containing constructs in exosomes using pre-miR-451 structural mimics as described herein was also performed.
as §5, with “TetR” for “TctR”

[19] = tested on: MDA-MB-231 cells; experiment: Exosomal enrichment of miRNA expressed from transfected pre-miR-451 structural mimic plasmids (RT-qPCR); assay type: cell-based, human; conditions: FIG. 3B
Description: (§6) (C) The ratio of endogenous miRNAs (let-7a, miR-106, miR-155) was measured in exosomes and exosome-producing cells (MEF, mouse embryonic fibroblasts) by RT-qPCR. y-axis is log 10. miR-451 is not endogenously expressed in these cells.
(§7) Plasmids expressing pre-miR-451, or pre-miR-451 structural mimics including the sequences of other miRNA, were transfected into the two cell types. Expressing miR-106 or miR-155 in the pre-miR-451 structural mimic caused them to be enriched up to 39-fold in exosomes produced by either MEF or breast cancer cells (see FIG. 3B,D). […] In MEF cells, endogenous miR-451 was undetectable in either cells or exosomes (see FIG. 3C).
(§8) Cells were transfected with plasmids using Lipofectamine 2000 according to the manufacturer's instructions. After four hours cells were washed in PBS and incubated with DMEM containing 10% FBS depleted of exosomes by ultracentrifugation according to Thery et al. (2006). After 24 h media was harvested and exosomes were purified by differential ultracentrifugation. RNA was purified from exosomes and exosome-producing cells using Trizol according to the manufacturer's instructions.
Exosomes were enriched by differential centrifugation as previously described (Thery, 2006, Curr Protoc Cell Biol, Chapter 3, Unit 3 22). […]

[20] = tested on: MEF cells; experiment: as above; assay type: cell-based, mouse; conditions: for Effect of pre-miR-451 backbone on levels of inserted miRNA in cells: MEF cells transfected with plasmids, FIG. 4
Description: as §6
MEF cells were transfected with pre-miR-451 expressing plasmids (“technology”) containing miR-199, miR-155 or miR-106, and exosomes were purified and RT-qPCR was performed on exosomes and cells.
as §7, §8
as §2, with “The exosome-enriched pellet was re-suspended in PBS for further analyses.” left out

CO/C1=C\C(C)=C\[C@@H](C)[C@@H](O)[C@@H](C)C/C(C)=C/C=C/[C@H](OC)[C@@H]([C@@H](C)[C@@H](O)[C@H](C)[C@@]2(O)C[C@@H](O)[C@H](C)[C@@H](C(C)C)O2)OC1=O [Bafilomycin A1]
Effect on exosome number [1]: increased exosome number

NAADP-AM
Effect on exosome number [1]: increased exosome number

C/C=C/[C@H]1O[C@@](O)([C@@H](C)[C@H](O)[C@H](C)[C@H]2OC(=O)/C(OC)=C/C(C)=C/[C@@H](C)[C@@H](O)[C@@H](CC)[C@@H](O)[C@H](C)C/C(C)=C/C=C/[C@@H]2OC)C[C@@H](O)[C@@H]1C [concanamycin]
Effect on exosome number [1]: increased exosome number

miR-451: endogenous miRNA strongly enriched in exosomes; generated from pre-miR-451 by Ago2 cleavage, Dicer-independent (AAACCGUUACCAUUACUGAGUUU; expressed or natural sequence; listed as Homo Sapiens)
Endogenous miR-451 in cells or exosomes ([2]; MEF cells, FIG. 3C): undetectable | Enrichment of miR-451 in exosomes/cell (vs. miR-16 and let-7a) ([2]; MEF, exosome-depleted or serum-free media): 68800 | Enrichment of miR-451 in exosomes/cell (vs. miR-16 and let-7a) [3]: 1887 | Enrichment of miR-451 in exosomes/cell (vs. miR-16 and let-7a) [4]: 40 | Enrichment of miR-451 in exosomes/cell (vs. miR-16 and let-7a) [5]: 22 | Enrichment of miR-451 in exosomes/cell (vs. miR-16 and let-7a) [6]: 383 | Enrichment of miR-451 in exosomes/cell (vs. miR-16 and let-7a) [7]: 23642 | Enrichment of miR-451 in exosomes/cell (vs. miR-16 and let-7a) [8]: 44 | Enrichment of miR-451 in exosomes/cell (vs. miR-16 and let-7a) [9]: 1280 | Enrichment of miR-451 in exosomes/cell (vs. miR-16 and let-7a) [10]: 4119 | Enrichment of miR-451 in exosomes/cell (vs. miR-16 and let-7a) [11]: 73 | Ratio of endogenous miRNA in exosomes and exosome-producing cells (in words) ([12]; MDA-MB-231, FIG. 3A): highly enriched in exosomes | Enrichment of miR-451 in exosomes/cell (vs. miR-16 and let-7a) ([12]; MDA, exosome-depleted or serum-free media): 5600 | Enrichment of miR-451 in exosomes compared to its levels in cells, compared to other miRNA ([12]; endogenous miRNA, MDA-MB-231, FIG. 3A): up to 308 fold | Enrichment of miR-451 in exosomes/cell (vs. miR-16 and let-7a) [13]: 5293 | Enrichment of miR-451 in exosomes/cell (vs. miR-16 and let-7a) ([14]; ESC, exosome-depleted or serum-free media): 3 | Enrichment of miR-451 in exosomes (in words) ([14]; human embryonic stem cells, H9 line, FIG. 7): strongly enriched | Enrichment of miR-451 in exosomes/cell (vs. miR-16 and let-7a) [15]: 702 | Enrichment of miR-451 in exosomes in several studies [16]: 10-10000 fold

AUGAACUUCAGGGUCAGCUUGC (listed as RNA, chemistry not fully specified) [fully mature ss, fully mature form of miR-451 produced GFP siRNA, single-stranded 22 nt RNA]
Exosomal enrichment among constructs mimicking processing stages (normalized to let-7a and miR-16, exosomes vs. cells) [17]: most strongly exosome-enriched construct | Exosomal enrichment compared with standard dsRNA siRNA with 3′ overhangs [17]: higher than dsRNA

B1: siRNA targeting TetR inserted in a pre-miR-451 structural mimic: pre-miR-451 structural mimic targeting TetR, SEQ ID NO: 20 (nucleic acid)
chain: CUUGGGAAUGGCAAGGUCUUGAUCUUCCAAUACGCAACCGUAUUGGAAGAUCAAGAUCUUGCUAUACCCAGA
modifications: expressed or natural sequence
Enrichment of siRNA in exosomes in Ago2 knockout cells [18]: still enriched in exosomes

B2: miR-106 in the pre-miR-451 structural mimic: pre-miR-451 structural mimic comprising the miR-106 targeting sequence, plasmid-expressed, SEQ ID NO: 7 (nucleic acid)
chain: CUUGGGAAUGGCAAGGAAAAGUGCUUACAGUGCAGGUAUGCACUGUAAGCACUUUCUCUUGCUAUACCCAGA
Enrichment in exosomes of miRNA inserted in the pre-miR-451 backbone (in words) [19]: comparable with miR-451 | Effect of pre-miR-451 backbone on levels of inserted miRNA in cells [20]: neglible effects | Enrichment in exosomes of miRNA inserted in the pre-miR-451 backbone (in words) ([20]; MEF cells, FIG. 3D): highly enriched

B3: miR-199 in the pre-miR-451 structural mimic: pre-miR-451 structural mimic comprising the miR-199 targeting sequence, plasmid-expressed, SEQ ID NO: 8 (nucleic acid)
chain: CUUGGGAAUGGCAAGGACAGUAGUCUGCACAUUGGUUAAUGUGCAGACUACUGUCUCUUGCUAUACCCAGA
Effect of pre-miR-451 backbone on levels of inserted miRNA in cells [20]: neglible effects
